# Patent US6737383B1, “Herbicidal oxadiazolidines” (priority 1999, dated 2004)
# Key:
# [1] = test system: blackgrass; test: Test E blackgrass; format: in vivo, Alopecurus myosuroides; conditions: Preemergence
# [2] = test system: winter wheat; test: Test E winter wheat; format: in vivo, Triticum aestivum; conditions: Preemergence
# [3] = test system: blackgrass; test: Test B pre/postemergence blackgrass; format: in vivo, Alopecurus myosuroides; conditions: for Blackgrass plant response rating: scale of 0 to 10 where 0 is no effect and 10 is complete control
# Procedure, shortened: (§1)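 Response is a visual 0-to-10 score relative to untreated plants, where 0 means no effect and 10 means complete control, taken twelve to sixteen days after application. Treatments went onto soil at planting and onto foliage of 1- to 4-leaf plants, using a surfactant-containing non-phytotoxic solvent.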
# [4] = test system: velvetleaf; test: Test B pre/postemergence velvetleaf; format: in vivo, Abutilon theophrasti; conditions: for Velvetleaf plant response rating: scale of 0 to 10 where 0 is no effect and 10 is complete control
# Procedure, shortened: as §1
# [5] = test system: bedstraw; test: Test B pre/postemergence bedstraw; format: in vivo, Galium aparine; conditions: Preemergence
# Procedure, shortened: as §1
# [6] = test system: wheat; test: Test B pre/postemergence wheat; format: in vivo, Triticum aestivum; conditions: for Wheat plant response rating: scale of 0 to 10 where 0 is no effect and 10 is complete control
# Procedure, shortened: as §1
# [7] = test system: winter wheat; test: Test E winter wheat; format: in vivo, Triticum aestivum; conditions: Postemergence, 0 to 100 scale, 0 is no effect, 100 is complete control
# Procedure, shortened: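 Greenhouse test: compounds in non-phytotoxic solvent with surfactant; for postemergence, sprayed on plants at 1- to 4-leaf stage grown in 60:40 sandy loam/potting mix. Injury rated visually against untreated controls after about 21 to 28 days.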
# [8] = test system: green foxtail; test: Test E green foxtail; format: in vivo, Setaria viridis; conditions: Preemergence
# [9] = test system: Italian ryegrass; test: Test E Italian ryegrass; format: in vivo, Lolium multiflorum; conditions: Preemergence
# [10] = test system: wild oat; test: Test E wild oat; format: in vivo, Avena fatua; conditions: Preemergence
# [11] = test system: winter barley; test: Test E winter barley; format: in vivo, Hordeum vulgare; conditions: Preemergence
# [12] = Rate 125 g/ha, 0 to 100 scale (0 no effect, 100 complete control)
# [13] = Rate 500 g/ha, 0 to 100 scale (0 no effect, 100 complete control)
# [14] = Postemergence, Rate 125 g/ha, scale 0 to 10, 0 is no effect, 10 is complete control
# [15] = Postemergence, Rate 250 g/ha, scale 0 to 10, 0 is no effect, 10 is complete control
# [16] = Preemergence, Rate 62 g/ha, scale 0 to 10 (0 no effect, 10 complete control)
# [17] = Rate 500 g/ha, Postemergence, scale 0 to 10, 0 no effect, 10 complete control
smiles,measurement,setting,value
CC1CC1n1c(=O)on(C(=O)N(c2ccccc2)C(C)C)c1=O (stereo not drawn) [Compound 370],"Plant response rating, Blackgrass",[1]; [12],50
same,"Plant response rating, Blackgrass","[1]; Rate 250 g/ha, 0 to 100 scale",70
same,"Plant response rating, Blackgrass",[1]; [13],100
same,"Plant response rating, Wheat (winter)",[2]; [12],50
same,"Plant response rating, Wheat (winter)","[2]; Rate 250 g/ha, 0 to 100 scale",40
same,"Plant response rating, Wheat (winter)",[2]; [13],60
same,"Plant response rating, Blackgrass",[3]; [14],4
same,"Plant response rating, Blackgrass",[3]; [15],4
same,"Plant response rating, Blackgrass",[3]; [16],6
same,Blackgrass plant response rating (0 to 10 scale),"[3]; Preemergence, Rate 125 g/ha",8
same,Blackgrass plant response rating,"[3]; Preemergence, Rate 250 g/ha",9
same,Blackgrass plant response rating,"[3]; Preemergence, Rate 500 g/ha",10
same,Blackgrass plant response rating,"[3]; Rate 62 g/ha, Postemergence",2
same,"Plant response rating, Blackgrass",[3]; [17],5
same,"Plant response rating, Velvetleaf",[4]; [14],0
same,"Plant response rating, Velvetleaf",[4]; [15],0
same,"Plant response rating, Velvetleaf",[4]; [16],2
same,Velvetleaf plant response rating (0 to 10 scale),"[4]; Preemergence, Rate 125 g/ha",4
same,Velvetleaf plant response rating,"[4]; Preemergence, Rate 250 g/ha",5
same,Velvetleaf plant response rating,"[4]; Preemergence, Rate 500 g/ha",6
same,Velvetleaf plant response rating,"[4]; Rate 62 g/ha, Postemergence",0
same,"Plant response rating, Velvetleaf",[4]; [17],4
same,"Plant response rating, Bedstraw","[5]; Rate 62 g/ha, scale 0 to 10 (0 no effect, 10 complete control)",0
same,Bedstraw plant response rating (0 to 10 scale),[5]; Rate 125 g/ha,3
same,Bedstraw plant response rating,"[5]; Rate 250 g/ha, scale of 0 to 10 where 0 is no effect and 10 is complete control",3
same,"Plant response rating, Wheat",[6]; [14],0
same,"Plant response rating, Wheat",[6]; [15],0
same,"Plant response rating, Wheat",[6]; [16],0
same,Wheat plant response rating (0 to 10 scale),"[6]; Preemergence, Rate 125 g/ha",0
same,Wheat plant response rating,"[6]; Preemergence, Rate 250 g/ha",2
same,Wheat plant response rating,"[6]; Preemergence, Rate 500 g/ha",7
same,Wheat plant response rating,"[6]; Rate 62 g/ha, Postemergence",0
same,"Plant response rating, Wheat",[6]; [17],3
same,"Plant response rating, Wheat (winter)",[7]; Rate 125 g/ha,70
same,"Plant response rating, Wheat (winter)",[7]; Rate 250 g/ha,80
same,"Plant response rating, Wheat (winter)",[7]; Rate 500 g/ha,85
same,"Plant response rating, Green foxtail",[8]; [12],70
same,"Plant response rating, Green foxtail","[8]; Rate 250 g/ha, 0 to 100 scale",100
same,"Plant response rating, Green foxtail",[8]; [13],100
same,"Plant response rating, I. Ryegrass",[9]; [12],55
same,"Plant response rating, I. Ryegrass","[9]; Rate 250 g/ha, 0 to 100 scale",85
same,"Plant response rating, I. Ryegrass",[9]; [13],90
same,"Plant response rating, Wild oat",[10]; [12],60
same,"Plant response rating, Wild oat","[10]; Rate 250 g/ha, 0 to 100 scale",75
same,"Plant response rating, Wild oat",[10]; [13],90
same,"Plant response rating, Barley (winter)",[11]; [12],60
same,"Plant response rating, Barley (winter)","[11]; Rate 250 g/ha, 0 to 100 scale, 0 no effect, 100 complete control",60
same,"Plant response rating, Barley (winter)",[11]; [13],70
